According to patent publication US20230391786A1, “cGAS INHIBITORS” (Eli Lilly and Company, priority 2022, published 2023):

The molecules below were run against recombinant human cGAS (Homo sapiens (Human), UniProt Q8N884) (assay: In vitro inhibition assay of cGAS activity (cGAMP production, RapidFire mass spectrometry)). Conditions: 10 nM recombinant human cGAS, 60 nM 75-bp dsDNA, ATP, GTP, room temperature 3 hours, read-out: IC50 (μM), In vitro inhibition assay for Compounds 1-94.
Format: biochemical
How it was run: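 Full-length His6-tagged human cGAS (10 nM, E. coli-expressed) was incubated 3 h at room temperature with 60 nM 75-bp dsDNA, ATP, 50 μM GTP and compound at pH 7.5 with 5 mM MgCl2. cGAMP formation was measured by RapidFire mass spectrometry, and IC50 was taken from a 4-parameter logistic fit.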

recombinant human cGAS, sequence (Q8N884 whole entry): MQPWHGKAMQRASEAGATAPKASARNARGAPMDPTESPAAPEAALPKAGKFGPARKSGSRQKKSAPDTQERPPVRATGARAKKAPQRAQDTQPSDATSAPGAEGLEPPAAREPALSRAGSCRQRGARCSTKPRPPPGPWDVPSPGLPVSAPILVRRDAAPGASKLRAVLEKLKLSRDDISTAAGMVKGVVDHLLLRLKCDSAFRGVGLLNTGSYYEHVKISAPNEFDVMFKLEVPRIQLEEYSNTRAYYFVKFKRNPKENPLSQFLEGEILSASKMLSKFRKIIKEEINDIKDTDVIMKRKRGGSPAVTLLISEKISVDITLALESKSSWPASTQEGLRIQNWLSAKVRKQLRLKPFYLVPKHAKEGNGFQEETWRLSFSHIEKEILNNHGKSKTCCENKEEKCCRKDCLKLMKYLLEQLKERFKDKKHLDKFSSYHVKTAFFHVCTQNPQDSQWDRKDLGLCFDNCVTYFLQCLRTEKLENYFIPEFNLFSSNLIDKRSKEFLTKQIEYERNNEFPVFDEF

SMILES | IC50 [µM]
CCOc1cc(Cl)c(Cl)c2c1c(-c1cn[nH]c1)c1n2CCNC1 [Example 90, 6,7-Dichloro-9-ethoxy-10-(1H-pyrazol-4-yl)-1,2,3,4-tetrahydropyrazino[1,2-a]indole] | 0.0587
CCOc1cc(Cl)c(Cl)c2c1c(-c1cn[nH]c1)c1n2CCN(C(=O)CO)C1 [Example 91, 1-[6,7-Dichloro-9-ethoxy-10-(1H-pyrazol-4-yl)-3,4-dihydro-1H-pyrazino[1,2-a]indol-2-yl]-2-hydroxy-ethanone] | 0.0405
N#CCNc1cc(Cl)c(Cl)c2c1c(-c1cn[nH]c1)c1n2CCN(C(=O)CO)C1 [Example 92, 2-[[6,7-Dichloro-2-(2-hydroxyacetyl)-10-(1H-pyrazol-4-yl)-3,4-dihydro-1H-pyrazino[1,2-a]indol-9-yl]amino]acetonitrile] | 0.0287
N#Cc1c(Cl)ccc2c(-c3cn[nH]c3)c[nH]c12 [Example 93, 6-Chloro-3-(1H-pyrazol-4-yl)-1H-indole-7-carbonitrile] | 0.18
Nc1nnc(-c2[nH]c3c(Cl)c(Cl)ccc3c2-c2cn[nH]c2)o1 [Example 94, 5-[6,7-Dichloro-3-(1H-pyrazol-4-yl)-1H-indol-2-yl]-1,3,4-oxadiazol-2-amine] | 0.0224

Same assay, conditions: 10 nM recombinant human cGAS, 60 nM 75-bp dsDNA, ATP, GTP, room temperature 3 hours, read-out: IC50 (μM), In vitro inhibition assay for Compounds 95-348

SMILES | IC50 [µM]
O=C1Cn2c(c(-c3cn[nH]c3)c3ccc(Cl)c(Cl)c32)CC(CO)N1 (stereo not drawn) [Example 101, 7,8-Dichloro-2-(hydroxymethyl)-11-(1H-pyrazol-4-yl)-2,3-dihydro-1H-[1,4]diazepino[1,7-a]indol-4(5H)-one] | 0.0705
O=C(NCc1[nH]c2c(Cl)c(Cl)ccc2c1-c1cn[nH]c1)c1cscn1 [Example 104, N-((6,7-Dichloro-3-(1H-pyrazol-4-yl)-1H-indol-2-yl)methyl)thiazole-4-carboxamide] | 0.0872
CCS(=O)(=O)NCc1[nH]c2c(Cl)c(Cl)ccc2c1-c1cn[nH]c1 [Example 105, N-((6,7-Dichloro-3-(1H-pyrazol-4-yl)-1H-indol-2-yl)methyl)ethanesulfonamide] | 0.0712
CC(=O)NCC(=O)NCc1[nH]c2c(Cl)c(Cl)ccc2c1-c1cn[nH]c1 [Example 106, 2-Acetamido-N-((6,7-dichloro-3-(1H-pyrazol-4-yl)-1H-indol-2-yl)methyl)acetamide] | 0.0561
COCCC(OC)C(=O)N1CCn2c(c(-c3cn[nH]c3)c3ccc(Cl)c(Cl)c32)C1 (stereo not drawn) [Example 108, 1-[6,7-Dichloro-10-(1H-pyrazol-4-yl)-3,4-dihydro-1H-pyrazino[1,2-a]indol-2-yl]-2,4-dimethoxy-butan-1-one] | 0.0621
CC(=O)N1CCOCC1C(=O)N1CCn2c(c(-c3cn[nH]c3)c3ccc(Cl)c(Cl)c32)C1 (stereo not drawn) [Example 109, 1-(3-(6,7-Dichloro-10-(1H-pyrazol-4-yl)-1,2,3,4-tetrahydropyrazino[1,2-a]indole-2-carbonyl)morpholino)ethan-1-one] | 0.0698
Cn1ncnc1CCC(=O)N1CCn2c(c(-c3cn[nH]c3)c3ccc(Cl)c(Cl)c32)C1 [Example 110, 1-[6,7-Dichloro-10-(1H-pyrazol-4-yl)-3,4-dihydro-1H-pyrazino[1,2-a]indol-2-yl]-3-(2-methyl-1,2,4-triazol-3-yl)propan-1-one] | 0.0561
OCC(O)CNc1cc(Cl)c(Cl)c2[nH]cc(-c3cn[nH]c3)c12 (stereo not drawn) [Example 175, 3-[[6,7-Dichloro-3-(1H-pyrazol-4-yl)-1H-indol-4-yl]amino]propane-1,2-diol] | 0.0585
N#CCC(=O)Nc1cc(Cl)c(Cl)c2[nH]cc(-c3cn[nH]c3)c12 [Example 176, 2-Cyano-N-[6,7-dichloro-3-(1H-pyrazol-4-yl)-1H-indol-4-yl]acetamide] | 0.0864
CCNC(=O)COCC(=O)N1CCn2c(c(-c3cn[nH]c3)c3ccc(Cl)c(Cl)c32)C1 [Example 179, 2-[2-[6,7-Dichloro-10-(1H-pyrazol-4-yl)-3,4-dihydro-1H-pyrazino[1,2-a]indol-2-yl]-2-oxo-ethoxy]-N-ethyl-acetamide] | 0.0585
CN1CC(=O)N(CC(=O)N2CCn3c(c(-c4cn[nH]c4)c4ccc(Cl)c(Cl)c43)C2)C1=O [Example 311, 3-(2-(6,7-Dichloro-10-(1H-pyrazol-4-yl)-3,4-dihydropyrazino[1,2-a]indol-2(1H)-yl)-2-oxoethyl)-1-methylimidazolidine-2,4-dione] | 0.043
COCCN1CC(C(=O)N2CCn3c(c(-c4cn[nH]c4)c4ccc(Cl)c(Cl)c43)C2)CC1=O (stereo not drawn) [Example 312, 4-(6,7-dichloro-10-(1H-pyrazol-4-yl)-1,2,3,4-tetrahydropyrazino[1,2-a]indole-2-carbonyl)-1-(2-methoxyethyl)pyrrolidin-2-one] | 0.0468
CN1CCN(CC(=O)N2CCn3c(c(-c4cn[nH]c4)c4ccc(Cl)c(Cl)c43)C2)C1=O [Example 313, 1-(2-(6,7-Dichloro-10-(1H-pyrazol-4-yl)-3,4-dihydropyrazino[1,2-a]indol-2(1H)-yl)-2-oxoethyl)-3-methylimidazolidin-2-one] | 0.0489
O=C1NC(C(=O)N2CCn3c(c(-c4cn[nH]c4)c4ccc(Cl)c(Cl)c43)C2)CCO1 (stereo not drawn) [Example 314, 4-(6,7-Dichloro-10-(1H-pyrazol-4-yl)-1,2,3,4-tetrahydropyrazino[1,2-a]indole-2-carbonyl)-1,3-oxazinan-2-one] | 0.0491
O=C1COCCN1CC(=O)N1CCn2c(c(-c3cn[nH]c3)c3ccc(Cl)c(Cl)c32)C1 [Example 315, 4-(2-(6,7-Dichloro-10-(1H-pyrazol-4-yl)-3,4-dihydropyrazino[1,2-a]indol-2(1H)-yl)-2-oxoethyl)morpholin-3-one] | 0.0503
O=C1CCCN1CC(=O)N1CCn2c(c(-c3cn[nH]c3)c3ccc(Cl)c(Cl)c32)C1 [Example 316, 1-(2-(6,7-Dichloro-10-(1H-pyrazol-4-yl)-3,4-dihydropyrazino[1,2-a]indol-2(1H)-yl)-2-oxoethyl)pyrrolidin-2-one] | 0.0509
COCCOCCC(=O)N1CCn2c(c(-c3cn[nH]c3)c3ccc(Cl)c(Cl)c32)C1 [Example 317, 1-(6,7-Dichloro-10-(1H-pyrazol-4-yl)-3,4-dihydropyrazino[1,2-a]indol-2(1H)-yl)-3-(2-methoxyethoxy)propan-1-one] | 0.0516
COCC(=O)N(C)CC(=O)N1CCn2c(c(-c3cn[nH]c3)c3ccc(Cl)c(Cl)c32)C1 [Example 318, N-(2-(6,7-Dichloro-10-(1H-pyrazol-4-yl)-3,4-dihydropyrazino[1,2-a]indol-2(1H)-yl)-2-oxoethyl)-2-methoxy-N-methylacetamide] | 0.0524
CN1CC(C(=O)N2CCn3c(c(-c4cn[nH]c4)c4ccc(Cl)c(Cl)c43)C2)CC1=O (stereo not drawn) [Example 319, 4-(6,7-Dichloro-10-(1H-pyrazol-4-yl)-1,2,3,4-tetrahydropyrazino[1,2-a]indole-2-carbonyl)-1-methylpyrrolidin-2-one] | 0.0534
CCN1C(=O)CCC1C(=O)N1CCn2c(c(-c3cn[nH]c3)c3ccc(Cl)c(Cl)c32)C1 (stereo not drawn) [Example 320, 5-(6,7-Dichloro-10-(1H-pyrazol-4-yl)-1,2,3,4-tetrahydropyrazino[1,2-a]indole-2-carbonyl)-1-ethylpyrrolidin-2-one] | 0.055
CC(=O)N1CC(C(=O)N2CCn3c(c(-c4cn[nH]c4)c4ccc(Cl)c(Cl)c43)C2)C1 [Example 321, 1-(3-(6,7-Dichloro-10-(1H-pyrazol-4-yl)-1,2,3,4-tetrahydropyrazino[1,2-a]indole-2-carbonyl)azetidin-1-yl)ethan-1-one] | 0.0562
Cc1noc(COCC(=O)N2CCn3c(c(-c4cn[nH]c4)c4ccc(Cl)c(Cl)c43)C2)n1 [Example 322, 1-(6,7-Dichloro-10-(1H-pyrazol-4-yl)-3,4-dihydropyrazino[1,2-a]indol-2(1H)-yl)-2-((3-methyl-1,2,4-oxadiazol-5-yl)methoxy)ethan-1-one] | 0.06
CN1C(=O)SC(CC(=O)N2CCn3c(c(-c4cn[nH]c4)c4ccc(Cl)c(Cl)c43)C2)C1=O (stereo not drawn) [Example 323, 5-(2-(6,7-Dichloro-10-(1H-pyrazol-4-yl)-3,4-dihydropyrazino[1,2-a]indol-2(1H)-yl)-2-oxoethyl)-3-methylthiazolidine-2,4-dione] | 0.0613
CN1C(=O)CCC1CC(=O)N1CCn2c(c(-c3cn[nH]c3)c3ccc(Cl)c(Cl)c32)C1 (stereo not drawn) [Example 324, 5-(2-(6,7-Dichloro-10-(1H-pyrazol-4-yl)-3,4-dihydropyrazino[1,2-a]indol-2(1H)-yl)-2-oxoethyl)-1-methylpyrrolidin-2-one] | 0.0626
O=C(CCc1ncc(F)cn1)N1CCn2c(c(-c3cn[nH]c3)c3ccc(Cl)c(Cl)c32)C1 [Example 325, 1-(6,7-Dichloro-10-(1H-pyrazol-4-yl)-3,4-dihydropyrazino[1,2-a]indol-2(1H)-yl)-3-(5-fluoropyrimidin-2-yl)propan-1-one] | 0.0626
CN1C(=O)CCC1C(=O)N1CCn2c(c(-c3cn[nH]c3)c3ccc(Cl)c(Cl)c32)C1 (stereo not drawn) [Example 326, 5-(6,7-Dichloro-10-(1H-pyrazol-4-yl)-1,2,3,4-tetrahydropyrazino[1,2-a]indole-2-carbonyl)-1-methylpyrrolidin-2-one] | 0.0627
CN1C(=O)CN(CC(=O)N2CCn3c(c(-c4cn[nH]c4)c4ccc(Cl)c(Cl)c43)C2)C1=O [Example 327, 1-(2-(6,7-Dichloro-10-(1H-pyrazol-4-yl)-3,4-dihydropyrazino[1,2-a]indol-2(1H)-yl)-2-oxoethyl)-3-methylimidazolidine-2,4-dione] | 0.0635
O=C(CCn1ccnc1)N1CCn2c(c(-c3cn[nH]c3)c3ccc(Cl)c(Cl)c32)C1 [Example 328, 1-(6,7-Dichloro-10-(1H-pyrazol-4-yl)-3,4-dihydropyrazino[1,2-a]indol-2(1H)-yl)-3-(1H-imidazol-1-yl)propan-1-one] | 0.0636
